Key:
[1] = system: Pseudomonas fluorescens; assay: Compound was evaluated for inhibition of PHBH at 100 uM concentration
[2] = target: Kynurenine/alpha-aminoadipate aminotransferase, mitochondrial (Rattus norvegicus) (UniProt Q64602); assay: Compound was evaluated for inhibition of rat liver KAT at 100 uM concentration
[3] = target: T1, FMO (Mus musculus, UniProt Q64133+Q8BW75); assay: Compound was evaluated for inhibition of FMO at 100 uM concentration; assay type: protein assay
T1 sequence (Q8BW75 whole entry): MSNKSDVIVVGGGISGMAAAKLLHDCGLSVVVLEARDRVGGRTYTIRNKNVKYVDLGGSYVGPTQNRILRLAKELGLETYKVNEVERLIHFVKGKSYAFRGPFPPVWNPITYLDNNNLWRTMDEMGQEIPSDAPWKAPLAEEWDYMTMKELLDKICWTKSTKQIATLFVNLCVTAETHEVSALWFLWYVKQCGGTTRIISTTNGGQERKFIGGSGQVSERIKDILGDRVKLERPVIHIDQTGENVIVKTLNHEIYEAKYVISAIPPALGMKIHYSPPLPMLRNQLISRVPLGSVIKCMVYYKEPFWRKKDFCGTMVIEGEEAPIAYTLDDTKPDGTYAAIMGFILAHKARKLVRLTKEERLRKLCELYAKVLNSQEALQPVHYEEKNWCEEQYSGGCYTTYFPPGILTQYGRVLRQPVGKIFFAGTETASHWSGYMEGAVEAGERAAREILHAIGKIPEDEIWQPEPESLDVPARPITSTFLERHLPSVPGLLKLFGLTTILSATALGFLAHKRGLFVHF
T1 sequence (Q64133 whole entry): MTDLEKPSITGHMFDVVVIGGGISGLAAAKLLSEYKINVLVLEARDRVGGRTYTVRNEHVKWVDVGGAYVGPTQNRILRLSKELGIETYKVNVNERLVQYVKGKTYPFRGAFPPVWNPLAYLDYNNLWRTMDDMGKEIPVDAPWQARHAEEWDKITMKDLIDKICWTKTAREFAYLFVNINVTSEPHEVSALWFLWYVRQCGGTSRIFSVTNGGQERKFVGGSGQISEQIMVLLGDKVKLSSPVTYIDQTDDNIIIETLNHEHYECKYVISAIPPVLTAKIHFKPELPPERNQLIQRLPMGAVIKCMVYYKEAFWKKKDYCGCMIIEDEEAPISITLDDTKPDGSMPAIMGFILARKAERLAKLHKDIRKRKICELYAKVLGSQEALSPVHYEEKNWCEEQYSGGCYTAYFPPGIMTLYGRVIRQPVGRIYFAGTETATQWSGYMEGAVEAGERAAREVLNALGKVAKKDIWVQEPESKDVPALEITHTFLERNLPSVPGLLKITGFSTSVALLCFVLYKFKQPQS

[4] = target: T2, Kynureninase (Rattus norvegicus) (UniProt P70712); assay: Compound was evaluated for inhibition of rat liver KYN ase at 100 uM concentration
T2 sequence (whole entry): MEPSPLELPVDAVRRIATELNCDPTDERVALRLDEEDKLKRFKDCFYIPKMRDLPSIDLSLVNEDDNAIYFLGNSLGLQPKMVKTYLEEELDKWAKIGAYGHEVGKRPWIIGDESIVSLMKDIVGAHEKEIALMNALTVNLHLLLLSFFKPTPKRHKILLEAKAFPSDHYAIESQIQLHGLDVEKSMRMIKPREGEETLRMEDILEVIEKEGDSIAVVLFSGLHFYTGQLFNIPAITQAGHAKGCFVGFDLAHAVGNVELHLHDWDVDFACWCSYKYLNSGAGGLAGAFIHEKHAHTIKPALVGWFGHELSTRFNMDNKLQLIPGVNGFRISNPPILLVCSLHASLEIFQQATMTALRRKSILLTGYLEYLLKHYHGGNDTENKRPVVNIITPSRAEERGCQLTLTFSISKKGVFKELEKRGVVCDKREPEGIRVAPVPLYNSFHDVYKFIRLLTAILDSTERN

[5] = target: Kynurenine 3-monooxygenase (Rattus norvegicus) (UniProt O88867); assay: Inhibition of rat liver KYN 3-OHase at 100 uM concentration
Sequence of Kynurenine 3-monooxygenase (Rattus norvegicus) (O88867 whole entry, looked up): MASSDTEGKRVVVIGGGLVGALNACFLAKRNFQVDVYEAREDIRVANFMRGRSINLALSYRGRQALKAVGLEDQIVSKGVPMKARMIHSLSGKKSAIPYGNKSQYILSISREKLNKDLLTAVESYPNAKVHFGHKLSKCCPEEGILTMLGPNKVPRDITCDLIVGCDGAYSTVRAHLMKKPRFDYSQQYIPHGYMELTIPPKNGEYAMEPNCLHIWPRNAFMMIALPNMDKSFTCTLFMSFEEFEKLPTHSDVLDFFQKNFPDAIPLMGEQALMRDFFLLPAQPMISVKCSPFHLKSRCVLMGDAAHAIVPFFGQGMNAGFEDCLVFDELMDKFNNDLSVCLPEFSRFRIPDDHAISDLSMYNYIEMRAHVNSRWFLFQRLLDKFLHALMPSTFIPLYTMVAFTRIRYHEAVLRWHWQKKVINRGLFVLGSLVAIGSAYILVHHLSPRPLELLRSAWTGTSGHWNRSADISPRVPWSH

[6] = target: Kynurenine/alpha-aminoadipate aminotransferase, mitochondrial (Rattus norvegicus) (UniProt Q64602); assay: Compound was evaluated for inhibition of rat liver KAT at 100 uM
[7] = target: T3, Kynurenine 3-monooxygenase (Rattus norvegicus, UniProt O88867); assay: Compound was evaluated for the inhibition of rat liver KYN 3-OHase
T3 sequence (O88867 whole entry): as the sequence (O88867 whole entry, looked up) above

[8] = target: T2, Kynureninase (Rattus norvegicus); assay: Compound was evaluated for inhibition of rat liver KYN ase at 100 uM
[9] = system: Pseudomonas fluorescens; assay: Compound was evaluated for inhibition of PHBH. at 100 uM
[10] = target: T1, FMO; assay: Compound was evaluated for inhibition of FMO. at 100 uM; assay type: protein assay
[11] = target: T3, Kynurenine 3-monooxygenase; assay: Inhibition of rat brain KYN 3-OHase.
[12] = target: T3, Kynurenine 3-monooxygenase; assay: Inhibition of rat liver KYN 3-OHase.
[13] = target: Kynurenine/alpha-aminoadipate aminotransferase, mitochondrial (Rattus norvegicus) (UniProt Q64602); assay: Compound was evaluated for inhibition of rat liver KAT at 100 uM concentration.

Sequence of Kynurenine/alpha-aminoadipate aminotransferase, mitochondrial (Rattus norvegicus) (Q64602 30-425 limits assumed): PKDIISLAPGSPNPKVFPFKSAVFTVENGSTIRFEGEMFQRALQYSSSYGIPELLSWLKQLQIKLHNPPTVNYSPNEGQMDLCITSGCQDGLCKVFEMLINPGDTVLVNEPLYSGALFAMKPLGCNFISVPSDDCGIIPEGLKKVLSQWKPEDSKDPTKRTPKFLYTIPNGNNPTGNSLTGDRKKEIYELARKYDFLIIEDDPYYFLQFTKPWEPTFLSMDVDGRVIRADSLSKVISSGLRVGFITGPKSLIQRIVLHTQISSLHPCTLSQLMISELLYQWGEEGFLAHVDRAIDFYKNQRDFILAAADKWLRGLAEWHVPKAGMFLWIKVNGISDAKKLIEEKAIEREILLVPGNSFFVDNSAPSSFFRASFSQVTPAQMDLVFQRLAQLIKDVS

Row | Structure (SMILES) | inhibition [5] | IC50 [11] | IC50 [12] | also measured
1 | O=C(CC(Cc1ccccc1)C(=O)O)c1ccc(Cl)c(Cl)c1 (centres undefined) | – | – | – | inhibition [1]: 8%; inhibition [2]: 8%; inhibition at 100 µM [3]: 16%; inhibition [4]: 0%
2 | NC(CC(=O)c1ccc(Cl)c(Cl)c1)C(=O)O (centres undefined) | – | – | – | inhibition [6]: 14%; IC50 [7]: 330 nM; inhibition [8]: 10%; inhibition [9]: 2%; inhibition at 100 µM [10]: 8.5%
3 | O=C(CC(Cl)C(=O)O)c1ccc(Cl)c(Cl)c1 (centres undefined) | – | 2200 nM | 14.8 µM | –
4 | O=C(CC(C(=O)O)c1ccccc1)c1ccc(Cl)c(Cl)c1 (centres undefined) | – | – | 19.5 µM | –
5 | O=C(CC(O)C(=O)O)c1ccc(Cl)c(Cl)c1 (centres undefined) | – | – | – | inhibition [1]: 29%; inhibition [4]: 0%; inhibition [13]: 23%
6 | O=C(CC(O)C(=O)O)c1cccc(Cl)c1 (centres undefined) | – | 480 nM | 1.1 µM | –
7 | NCCC(=O)c1ccc(Cl)c(Cl)c1 | 2% | – | – | –

Further lines, with some results ahead:

Row | inhibition [5] | IC50 [11] | IC50 [12] | Structure (SMILES) | also measured
8 | 43% | – | – | CC(O)(CC(=O)c1ccc(Cl)c(Cl)c1)C(=O)O (centres undefined) | –
9 | 21% | – | – | CC(C)(CC(=O)c1ccc(Cl)c(Cl)c1)C(=O)O | –
10 | – | 440 nM | 1.2 µM | O=C(O)C(=O)/C=C(\O)c1ccc(F)c(F)c1 | –
11 | – | 2200 nM | 11.3 µM | C/C(=C\C(=O)c1ccc(Cl)c(Cl)c1)C(=O)O | –
12 | 35% | – | – | CC(N)(CC(=O)c1ccc(Cl)c(Cl)c1)C(=O)O (centres undefined) | –
13 | – | 950 nM | 6.4 µM | O=C(O)C(=O)/C=C(\O)c1ccc(Cl)c(Cl)c1 | –
14 | 7% | – | – | COc1ccc(C(=O)CC(O)C(=O)O)cc1 (centres undefined) | –
15 | 20% | – | – | O=C(CC1(C(=O)O)CC1)c1ccc(Cl)c(Cl)c1 | –

Reference: ChEMBL document CHEMBL1130635, “4-Phenyl-4-oxo-butanoic acid derivatives inhibitors of kynurenine 3-hydroxylase” (Bioorg Med Chem Lett, 1998)
